The source of these data is patent US8809352B2, “Sulfonamides as inhibitors of Bcl-2 family proteins for the treatments of cancer” (Novartis AG, priority 2009, dated 2014).

Broadly, the IC50 is the midpoint of a concentration-inhibition curve.

Sequence of BCL2 (P10415 whole entry): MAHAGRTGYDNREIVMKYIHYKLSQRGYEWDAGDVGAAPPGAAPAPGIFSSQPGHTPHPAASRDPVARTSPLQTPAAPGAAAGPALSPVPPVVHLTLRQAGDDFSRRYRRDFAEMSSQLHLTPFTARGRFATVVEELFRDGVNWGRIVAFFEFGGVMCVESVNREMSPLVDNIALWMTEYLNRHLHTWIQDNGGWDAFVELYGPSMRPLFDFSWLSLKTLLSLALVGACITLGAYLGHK

The target in the experiment is BCL2 (Homo sapiens, UniProt P10415). Put plainly: Biacore SPR solution inhibition assay of BCL-2 binding to peptide derivatized sensor surfaces. To be noted: SPR competition; 56 nM BCL2 pre-equilibrated with compound one hour; biotinylated BAK, BAD and NOXA peptide surfaces; 25° C. The source says:
The present method includes utility of a Surface plasmon resonance (SPR)-based biosensor (Biacore™ GE Healthcare, Uppsala, Sweden) to characterize BCL-2 inhibitors.
Biacore™ utilizes the phenomenon of surface plasmon resonance (SPR) to detect and measure binding interactions. In a typical Biacore experiment, one of the interacting molecules (ligand) is immobilized on a flexible dextran matrix while the interacting partner (analyte) is allowed to flow across that surface. A binding interaction results in an increase in mass on the sensor surface and a corresponding direct change in the refractive index of the medium in the vicinity of the sensor surface. Changes in refractive index or signal are recorded in resonance units (R.U.) Signal changes due to association and dissociation of complexes are monitored in a non-invasive manner, continuously and in real-time, the results of which are reported in the form of a sensorgram. The SPR assay is configured to examine solution inhibition of BCL-2 binding to peptide derivatized sensor surfaces to generate […] values as a measure of inhibitor potency.
Biacore™ A100 (GE Healthcare, Uppsala, Sweden) was used to conduct all experiments reported herein. Sensor surface preparation and all interaction analyses experiments were performed at 25° C. Reagents were purchased from GE Healthcare. Running buffer containing 10 mM Hepes, pH7.4, 150 mM sodium chloride, 1.25 mM Dithiothreitol, 3% Dimethyl sulfoxide and 0.05% polysorbate 20 were utilized throughout all analyses.
Biotinylated BAK, BAD and NOXA peptides were diluted to 10 nM in running buffer and captured onto a sensor surface pre-derivatized with streptavidin (sensor chip SA) to peptide surface densities in the range 50-100 R.U. Peptide captured surfaces were blocked with 500 μM PEO2-Biotin.
Interaction analyses were performed by first equilibrating each sample within a 6 point three fold compound dilution series in the range 16 μM to 0.004 nM with 56 nM BCL2 for one hour during instrument start-up procedures. Protein compound mixtures were then injected over each peptide surface in parallel for 60 seconds at a flow-rate of 30 μL/min. 56 nM BCL2 control samples were also prepared and run at regular intervals during the assay. Surface regeneration was performed at the end of each analysis cycle by two 30 second injections of 10 mM Glycine, pH 2.5, 1M Sodium Chloride, 0.05% polysorbate 20. Samples and control compound samples were run in duplicate and controls are also run at regular intervals during the assay to monitor surface and assay performance.
Data analyses are carried out using Biacore™ A100 evaluation software v1.1 to validate assay quality. Binding level report points were used relative to BCL2 control samples to calculate % inhibition values for each compound protein mixture.
As to `C[C@H]1CC(N2CCc3c(ncnc3NS(=O)(=O)c3ccc(N[C@H](CCN(C)C)CSc4ccccc4)c([N+](=O)[O-])c3)C2)CCN1Cc1ccccc1-c1ccc(Cl)cc1` (mixture of isomers) [Example 3], the IC50 stood at 62 nM. As for `C[C@H]1CC(N2CCc3c(ncnc3NS(=O)(=O)c3ccc(N[C@H](CCN(C)C)CSc4ccccc4)c(S(=O)(=O)C(F)(F)F)c3)C2)CCN1Cc1ccccc1-c1ccc(Cl)cc1` (mixture of isomers) [Example 4, N-(7-((2S)-1-((4′-chlorobiphenyl-2-yl)methyl)-2-methylpiperidin-4-yl)-5,6,7,8-tetrahydropyrido[3,4-d]pyrimidin-4-yl)-4-((R)-4-(dimethylamino)-1-(phenylthio)butan-2-ylamino)-3-(trifluoromethylsulfonyl)benzenesulfonamide], the IC50 was determined as 22 nM. In the case of `COC1(Cc2ccccc2-c2ccc(Cl)cc2)CCC(N2CCc3c(ncnc3NS(=O)(=O)c3ccc(N[C@H](CCN(C)C)CSc4ccccc4)c(S(=O)(=O)C(F)(F)F)c3)C2)CC1` (mixture of isomers) [Example 60, (R)-N-(7-(4-((4′-chlorobiphenyl-2-yl)methyl)-4-methoxycyclohexyl)-5,6,7,8-tetrahydropyrido[3,4-d]pyrimidin-4-yl)-4-(4-(dimethylamino)-1-(phenylthio)butan-2-ylamino)-3-(trifluoromethylsulfonyl)benzenesulfonamide] it was 63 nM; in that of `CN(C)CC[C@H](CSc1ccccc1)Nc1ccc(S(=O)(=O)Nc2ncnc3c2CCN(C2CCC(O)(Cc4ccccc4-c4ccc(Cl)cc4)CC2)C3)cc1S(=O)(=O)C(F)(F)F` (mixture of isomers) [Example 64, (R)-N-(7-(4-((4′-chlorobiphenyl-2-yl)methyl)-4-hydroxycyclohexyl)-5,6,7,8-tetrahydropyrido[3,4-d]pyrimidin-4-yl)-4-(4-(dimethylamino)-1-(phenylthio)butan-2-ylamino)-3-(trifluoromethylsulfonyl)benzenesulfonamide], 70 nM. `CC1Cc2c(ncnc2NS(=O)(=O)c2ccc(N[C@H](CCN(C)C)CSc3ccccc3)c(S(=O)(=O)C(F)(F)F)c2)CN1C1CCN(Cc2ccccc2-c2ccc(Cl)cc2)CC1` (stereo in doubt) [Example 48, N—[(S)-7-[1-(4′-Chloro-biphenyl-2-ylmethyl)-piperidin-4-yl]-6-methyl-5,6,7,8-tetrahydro-pyrido[3,4-d]pyrimidin-4-yl]-4-((R)-3-dimethylamino-1-phenylsulfanylmethyl-propylamino)-3 trifluoromethanesulfonyl-benzene sulfonamide]: the IC50 came to 353 nM. Turning to `CC1Cc2c(ncnc2NS(=O)(=O)c2ccc(N[C@H](CCN(C)C)CSc3ccccc3)c(S(=O)(=O)C(F)(F)F)c2)CN1C1CCN(Cc2ccccc2-c2ccc(Cl)cc2)CC1` (stereo in doubt) [Example 49, N-{(R)-7-[1-(4′-Chloro-biphenyl-2-ylmethyl)-piperidin-4-yl]-6-methyl-5,6,7,8-tetrahydro-pyrido[3,4-d]pyrimidin-4-yl}-4-((R)-3-dimethylamino-1-phenylsulfanylmethyl-propylamino)-3-trifluoromethanesulfonyl-benzenesulfonamide], the IC50 turned out to be 33 nM. Take `CN(C)CC[C@H](CSc1ccccc1)Nc1ccc(S(=O)(=O)Nc2ncnc3c2CCN(C2CCN(Cc4ccccc4-c4ccc(Cl)cc4)CC2)C3)cc1[N+](=O)[O-]` [Example 1, N-{7-[1-(4′-Chloro-biphenyl-2-ylmethyl)-piperidin-4-yl]-5,6,7,8-tetrahydro-pyrido[3,4-d]pyrimidin-4-yl}-4-((R)-3-dimethylamino-1-phenylsulfanylmethyl-propylamino)-3-nitro-benzenesulfonamide]: the IC50 turned out to be 100 nM.

Regarding `CN(C)CC[C@H](CSc1ccccc1)Nc1ccc(S(=O)(=O)Nc2ncnc3c2CCN(C2CCN(CC4=C(c5ccc(Cl)cc5)CCC(C)(C)C4)CC2)C3)cc1[N+](=O)[O-]` [Example 2], the IC50 was 31 nM. In the case of `CN(C)CC[C@H](CSc1ccccc1)Nc1ccc(S(=O)(=O)Nc2ncnc3c2CCN(C2CCN(Cc4ccccc4-c4ccc(F)cc4)CC2)C3)cc1S(=O)(=O)C(F)(F)F` [Example 5, (R)-4-(4-(dimethylamino)-1-(phenylthio)butan-2-ylamino)-N-(7-(1-((4′-fluorobiphenyl-2-yl)methyl)piperidin-4-yl)-5,6,7,8-tetrahydropyrido[3,4-d]pyrimidin-4-yl)-3-(trifluoromethylsulfonyl)benzenesulfonamide] it was 25 nM. Under `CN(C)CC[C@H](CSc1ccccc1)Nc1ccc(S(=O)(=O)Nc2ncnc3c2CCN(C2CCN(Cc4ccccc4-c4ccc(Br)cc4)CC2)C3)cc1S(=O)(=O)C(F)(F)F` [Example 6, (R)-N-(7-(1-((4′-bromobiphenyl-2-yl)methyl)piperidin-4-yl)-5,6,7,8-tetrahydropyrido[3,4-d]pyrimidin-4-yl)-4-(4-(dimethylamino)-1-(phenylthio)butan-2-ylamino)-3-(trifluoromethylsulfonyl)benzenesulfonamide] stands 19 nM.

Turning to `CN(C)CC[C@H](CSc1ccccc1)Nc1ccc(S(=O)(=O)Nc2ncnc3c2CCN(C2CCN(Cc4ccccc4Br)CC2)C3)cc1S(=O)(=O)C(F)(F)F` [Example 7, (R)-N-(7-(1-(2-bromobenzyl)piperidin-4-yl)-5,6,7,8-tetrahydropyrido[3,4-d]pyrimidin-4-yl)-4-(4-(dimethylamino)-1-(phenylthio)butan-2-ylamino)-3-(trifluoromethylsulfonyl)benzenesulfonamide], the IC50 stood at 506 nM. Under `CC1(C)CCC(c2ccc(Cl)cc2)=C(CN2CCC(N3CCc4c(ncnc4NS(=O)(=O)c4ccc(N[C@H](CCN5CCOCC5)CSc5ccccc5)c(S(=O)(=O)C(F)(F)F)c4)C3)CC2)C1` [Example 8] stands 76 nM; under `O=S(=O)(Nc1ncnc2c1CCN(C1CCN(Cc3ccccc3-c3ccc(Cl)cc3)CC1)C2)c1ccc(N[C@H](CCN2CCOCC2)CSc2ccccc2)c(S(=O)(=O)C(F)(F)F)c1` [Example 9, (R)-N-(7-(1((4′-chlorobiphenyl-2-yl)methyl)piperidin-4-yl)-5,6,7,8-tetrahydropyrido[3,4-d]pyrimidin-4-yl)-4-(4-morpholino-1-(phenylthio)butan-2-ylamino)-3-(trifluoromethylsulfonyl)benzenesulfonamide], 144 nM; under `CN(C)CC[C@H](CSc1ccccc1)Nc1ccc(S(=O)(=O)Nc2ncnc3c2CCN(C2CCN(CC4=C(c5ccc(Cl)cc5)CCC(C)(C)C4)CC2)C3)cc1S(=O)(=O)C(F)(F)F` [Example 10, (R)-N-(7-(1-((2-(4-chlorophenyl)-5,5-dimethylcyclohex-1-enyl)methyl)piperidin-4-yl)-5,6,7,8-tetrahydropyrido[3,4-d]pyrimidin-4-yl)-4-(4-(dimethylamino)-1-(phenylthio)butan-2-ylamino)-3-(trifluoromethylsulfonyl)benzenesulfonamide], 31 nM. In the case of `CN(C)CC[C@H](CSc1ccccc1)Nc1ccc(S(=O)(=O)Nc2ncnc3c2CCN(C2CCN(Cc4ccccc4-c4ccc(Cl)cc4)CC2)C3)cc1S(=O)(=O)C(F)(F)F` [Example 11, (R)-N-(7-(1((4′-chlorobiphenyl-2-yl)methyl)piperidin-4-yl)-5,6,7,8-tetrahydropyrido[3,4-d]pyrimidin-4-yl)-4-(4-(dimethylamino)-1-(phenylthio)butan-2-ylamino)-3-(trifluoromethylsulfonyl)benzenesulfonamide] it was 20 nM; in that of `CN(C)CC[C@H](CSc1ccccc1)Nc1c(F)cc(S(=O)(=O)Nc2ncnc3c2CCN(C2CCN(Cc4ccccc4-c4ccc(Cl)cc4)CC2)C3)cc1F` [Example 12, (R)-N-(7-(1-((4′-chlorobiphenyl-2-yl)methyl)piperidin-4-yl)-5,6,7,8-tetrahydropyrido[3,4-d]pyrimidin-4-yl)-4-(4-(dimethylamino)-1-(phenylthio)butan-2-ylamino)-3,5-difluorobenzenesulfonamide], 3060 nM; in that of `CC[C@H](CSc1ccccc1)Nc1ccc(S(=O)(=O)Nc2ncnc3c2CCN(C2CCN(Cc4ccccc4-c4ccc(Cl)cc4)CC2)C3)cc1S(=O)(=O)C(F)(F)F` [Example 13], 502 nM. Under `CC(=O)N(CCSc1ccccc1)c1ccc(S(=O)(=O)Nc2ncnc3c2CCN(C2CCN(Cc4cc(F)ccc4-c4ccc(Cl)cc4)CC2)C3)cc1S(=O)(=O)C(F)(F)F` [Example 15] stands 757 nM.
